Patent US20260125371A1, “METHOD FOR INHIBITING CLOSTRIDIOIDES DIFFICILE SPORE GERMINATION” (UNIVERSITY OF NOTRE DAME DU LAC, priority 2022, published 2026)
Values after ≈ are worked out from the molar mass of the structure shown. Read-outs that look alike come from different tables or passages of the source.

System: C. difficile ATCC 43255
Experiment: Determination of minimal-inhibitory concentrations (microdilution), C. difficile ATCC 43255
Assay type: cell-based, Clostridioides difficile
Conditions: for MIC: Clostridioides difficile
[1] = ATCC43255, 24 h, C. difficile ATCC 43255, 24 h, read-out: MIC (μg/mL) 24 h
[2] = ATCC43255, 48 h, C. difficile ATCC 43255, 48-h incubation, read-out: MIC (μg/mL) 48 h
[3] = C. difficile ATCC 43255, 48-h incubation

FC(F)(F)c1ccc(Oc2ccc(-c3noc(-c4ccncc4)n3)cc2)cc1 [Compound 23, 5-(Pyridin-4-yl)-3-(4-(4-(trifluoromethyl)phenoxy)phenyl)-1,2,4-oxadiazole]
MIC [1]: > 128 µg/mL | MIC [2]: > 128 µg/mL

FC(F)(F)c1ccc(Oc2ccc(-c3noc(-c4cn[nH]c4)n3)cc2)cc1 [Compound 33, 5-(1H-Pyrazol-4-yl)-3-(4-(4-(trifluoromethyl)phenoxy)phenyl)-1,2,4-oxadiazole]
MIC [1]: > 128 µg/mL | MIC [2]: > 128 µg/mL

FC(F)(F)c1ccc(Oc2ccc(-c3noc(-c4cc5ccccc5[nH]4)n3)cc2)cc1 [Compound 48, 5-(1H-Indol-2-yl)-3-(4-(4-(trifluoromethyl)phenoxy)phenyl)-1,2,4-oxadiazole]
MIC [1]: > 128 µg/mL | MIC [2]: > 128 µg/mL

O=[N+]([O-])c1ccc(-c2nc(-c3ccc(OC4CCCC4)cc3)no2)cc1 [Compound 50, 3-(4-(Cyclopentyloxy)phenyl)-5-(4-nitrophenyl)-1,2,4-oxadiazole]
MIC (μg/mL) 48 h [3]: >128 µg/mL | MIC [1]: > 128 µg/mL

c1nc2ccc(-c3nc(-c4ccc(OC5CCCC5)cc4)no3)cc2[nH]1 [Compound 55, 5-(1H-Benzo[d]imidazol-6-yl)-3-(4-(cyclopentyloxy)phenyl)-1,2,4-oxadiazole]
MIC (μg/mL) 48 h [3]: 128 µg/mL (≈ 370 µM) | MIC [1]: 128 µg/mL (≈ 370 µM) | MIC [2]: > 128 µg/mL

c1cc2cc(-c3nc(-c4ccc(OC5CCCC5)cc4)no3)ccc2[nH]1 [Compound 56, 3-(4-(Cyclopentyloxy)phenyl)-5-(1H-indol-5-yl)-1,2,4-oxadiazole]
MIC (μg/mL) 48 h [3]: >128 µg/mL | MIC [1]: > 128 µg/mL | MIC [2]: > 128 µg/mL

O=[N+]([O-])c1cn(CCO)c(-c2nc(-c3ccc(OC4CCCC4)cc3)no2)n1 [Compound 58, 3-(4-(Cyclopentyloxy)phenyl)-5-(1-(2-hydroxyethyl)-4-nitro-1H-imidazol-2-yl)-1,2,4-oxadiazole]
antibacterial activity against C. difficile (in words) (C. difficile ATCC43255): lost activity | MIC [1]: > 128 µg/mL | MIC [2]: > 128 µg/mL

Cn1c(-c2nc(-c3ccc(OC4CCCC4)cc3)no2)cnc1[N+](=O)[O-] [Compound 59, 3-(4-(Cyclopentyloxy)phenyl)-5-(1-methyl-2-nitro-1H-imidazol-5-yl)-1,2,4-oxadiazole]
MIC [1]: 32 µg/mL (≈ 90.1 µM)

C[C@@H](NC(=O)OC(C)(C)C)c1nc(-c2ccc(OC3CCCC3)cc2)no1 [Compound 60, tert-Butyl (R)-(1-(3-(4-(cyclopentyloxy)phenyl)-1,2,4-oxadiazol-5-yl)ethyl) carbamate]
MIC (μg/mL) 48 h [3]: >128 µg/mL | MIC (μg/mL) 24 h (C. difficile ATCC 43255, 24 h): >128 µg/mL

C[C@@H](N)c1nc(-c2ccc(OC3CCCC3)cc2)no1 [Compound 61, (R)-1-(3-(4-(Cyclopentyloxy)phenyl)-1,2,4-oxadiazol-5-yl) ethan-1-amine]
MIC [1]: > 128 µg/mL | MIC [2]: > 128 µg/mL

C[C@@H](NC(=O)OC(C)(C)C)C(=O)N[C@H](C)c1nc(-c2ccc(OC3CCCC3)cc2)no1 [Compound 62, 5-((R)-1-((R)-2-(Boc-amino)propanamido)ethyl)-3-(4-(cyclopentyloxy)phenyl)-1,2,4-oxadiazole]
MIC [1]: > 128 µg/mL | MIC [2]: > 128 µg/mL

Oc1ccc(Cc2nc(-c3ccc(OC4CCCC4)cc3)no2)cc1 [Compound 63, 3-(4-(Cyclopentyloxy)phenyl)-5-(4-hydroxybenzyl)-1,2,4-oxadiazole]
MIC [1]: 8 µg/mL (≈ 23.8 µM) | MIC [2]: 16 µg/mL (≈ 47.6 µM)

Oc1ccc(Nc2nc(-c3ccc(OC4CCCC4)cc3)no2)cc1 [Compound 64, 4-((3-(4-(Cyclopentyloxy)phenyl)-1,2,4-oxadiazol-5-yl)amino)phenol]
MIC [1]: 16 µg/mL (≈ 47.4 µM) | MIC [2]: 32 µg/mL (≈ 94.8 µM)

Oc1cccc(/C=C/c2nc(-c3ccc(OC4CCCC4)cc3)no2)c1 [Compound 65, 3-(4-(Cyclopentyloxy)phenyl)-(E)-5-(3-hydroxystyryl)-1,2,4-oxadiazole]
MIC [1]: > 128 µg/mL | MIC [2]: > 128 µg/mL

Oc1ccc(/C=C/c2nc(-c3ccc(OC4CCCC4)cc3)no2)cc1 [Compound 66, 3-(4-(Cyclopentyloxy)phenyl)-(E)-5-(4-hydroxystyryl)-1,2,4-oxadiazole]
MIC [1]: 32 µg/mL (≈ 91.8 µM) | MIC [2]: 64 µg/mL (≈ 184 µM)

Nc1nc(-c2ccc(OC3CCCC3)cc2)no1 [Compound 68, 3-(4-(Cyclopentyloxy)phenyl)-1,2,4-oxadiazol-5-amine]
MIC [1]: > 128 µg/mL | MIC [2]: > 128 µg/mL

O=c1[nH]c(-c2ccc(OC3CCCC3)cc2)no1 [Compound 69, 3-(4-(Cyclopentyloxy)phenyl)-1,2,4-oxadiazol-5 (4H)-one]
MIC [1]: 64 µg/mL (≈ 260 µM) | MIC [2]: 64 µg/mL (≈ 260 µM)

Clc1nc(-c2ccc(OC3CCCC3)cc2)no1 [Compound 70, 5-Chloro-3-(4-(cyclopentyloxy)phenyl)-1,2,4-oxadiazole]
MIC [1]: > 128 µg/mL | MIC [2]: > 128 µg/mL

Oc1ccc(-c2nc(-c3ccc(OC4CCCC=C4Br)cc3)no2)cc1 (stereo not drawn) [Compound 78, 4-(3-(4-((2-Bromocyclohex-2-en-1-yl)oxy)phenyl)-1,2,4-oxadiazol-5-yl)phenol]
MIC (μg/mL) 48 h [3]: >128 µg/mL | MIC (ATCC43255, 24 h, read-out: MIC (μg/mL) 24 h): > 128 µg/mL | MIC (ATCC43255, 48 h, read-out: MIC (μg/mL) 48 h): > 128 µg/mL

Oc1ccc(-c2nc(-c3ccc(Oc4ccccc4)c(Br)c3)no2)cc1 [Compound 79, 4-(3-(3-Bromo-4-phenoxyphenyl)-1,2,4-oxadiazol-5-yl)phenol]
MIC (μg/mL) 48 h [3]: >128 µg/mL | MIC [1]: > 128 µg/mL

C#CCOc1ccc(-c2noc(-c3ccc(O)cc3)n2)cc1 [Compound 88, 4-(3-(4-(Prop-2-yn-1-yloxy)phenyl)-1,2,4-oxadiazol-5-yl)phenol]
MIC [1]: 16 µg/mL (≈ 54.7 µM) | MIC [2]: 128 µg/mL (≈ 438 µM)

C#CCCOc1ccc(-c2noc(-c3ccc(O)cc3)n2)cc1 [Compound 89, 4-(3-(4-(But-3-yn-1-yloxy)phenyl)-1,2,4-oxadiazol-5-yl)phenol]
MIC [1]: > 128 µg/mL | MIC [2]: > 128 µg/mL

COC(OC)c1ccc(-c2noc(-c3ccc(O)cc3)n2)cc1 [Compound 106, 4-(3-(4-(Dimethoxymethyl)phenyl)-1,2,4-oxadiazol-5-yl)phenol]
MIC [1]: 64 µg/mL (≈ 205 µM) | MIC [2]: > 128 µg/mL

O=Cc1ccc(-c2noc(-c3ccc(O)cc3)n2)cc1 [Compound 107, 4-(5-(4-Hydroxyphenyl)-1,2,4-oxadiazol-3-yl)benzaldehyde]
MIC [1]: 64 µg/mL (≈ 240 µM) | MIC [2]: > 128 µg/mL

Oc1ccc(-c2nc(-c3ccc(C(O)C(F)(F)F)cc3)no2)cc1 (stereo not drawn) [Compound 108, 4-(3-(4-(2,2,2-Trifluoro-1-hydroxyethyl)phenyl)-1,2,4-oxadiazol-5-yl)phenol]
MIC [1]: 32 µg/mL (≈ 95.2 µM) | MIC [2]: 32 µg/mL (≈ 95.2 µM)

O=C(c1ccc(-c2noc(-c3ccc(O)cc3)n2)cc1)C(F)(F)F [Compound 109, 5-(4-Hydroxyphenyl)-3-(4-(2,2,2-trifluoroacetyl)phenyl)-1,2,4-oxadiazole]
MIC [1]: 8 µg/mL (≈ 23.9 µM) | MIC [2]: 8 µg/mL (≈ 23.9 µM)

Fc1ccc2oc3ccc(-c4noc(-c5ccc6[nH]ccc6c5)n4)cc3c2c1 [Compound 121, 3-(8-Fluorodibenzo[b,d]furan-2-yl)-5-(1H-indol-5-yl)-1,2,4-oxadiazole]
MIC [1]: > 128 µg/mL | MIC [2]: > 128 µg/mL

Fc1ccccc1-c1noc(-c2ccc3[nH]ccc3c2)n1 [Compound 125, 3-(2-Fluorophenyl)-5-(1H-indol-5-yl)-1,2,4-oxadiazole]
MIC [1]: > 128 µg/mL | MIC [2]: > 128 µg/mL

O=[N+]([O-])c1ccc(-c2noc(-c3ccc4[nH]ccc4c3)n2)cc1 [Compound 126, 5-(1H-Indol-5-yl)-3-(4-nitrophenyl)-1,2,4-oxadiazole]
MIC [1]: > 128 µg/mL | MIC [2]: > 128 µg/mL

c1cc2cc(-c3nc(-c4ccc5c(c4)CCN5)no3)ccc2[nH]1 [Compound 129, 5-(1H-Indol-5-yl)-3-(indolin-5-yl)-1,2,4-oxadiazole]
MIC [1]: > 128 µg/mL | MIC [2]: > 128 µg/mL
